Substitutions are numbered along the chain they refer to.
Assays:
Type in all cases: biochemical
hmtThrRS [1] = target: T1, hmtThrRS (Homo sapiens, UniProt Q9BW92); assay: tRNA aminoacylation and mischarging, […]tRNA TLC, after preincubation; IBP-MS of modified Cys; settings: covalent (S-nitrosation, reversed by DTT); 1 uM enzyme preincubated with 1 or 5 mM GSNO, 37 C; pH 7.5, 10 mM MgCl2
T1 construct: gene TARS2; mature form Leu20-Phe718, 699 residues, pET28, Ni-NTA, E. coli BL21(DE3), no reducing agent, dimer
T1 sequence (Q9BW92 20-718): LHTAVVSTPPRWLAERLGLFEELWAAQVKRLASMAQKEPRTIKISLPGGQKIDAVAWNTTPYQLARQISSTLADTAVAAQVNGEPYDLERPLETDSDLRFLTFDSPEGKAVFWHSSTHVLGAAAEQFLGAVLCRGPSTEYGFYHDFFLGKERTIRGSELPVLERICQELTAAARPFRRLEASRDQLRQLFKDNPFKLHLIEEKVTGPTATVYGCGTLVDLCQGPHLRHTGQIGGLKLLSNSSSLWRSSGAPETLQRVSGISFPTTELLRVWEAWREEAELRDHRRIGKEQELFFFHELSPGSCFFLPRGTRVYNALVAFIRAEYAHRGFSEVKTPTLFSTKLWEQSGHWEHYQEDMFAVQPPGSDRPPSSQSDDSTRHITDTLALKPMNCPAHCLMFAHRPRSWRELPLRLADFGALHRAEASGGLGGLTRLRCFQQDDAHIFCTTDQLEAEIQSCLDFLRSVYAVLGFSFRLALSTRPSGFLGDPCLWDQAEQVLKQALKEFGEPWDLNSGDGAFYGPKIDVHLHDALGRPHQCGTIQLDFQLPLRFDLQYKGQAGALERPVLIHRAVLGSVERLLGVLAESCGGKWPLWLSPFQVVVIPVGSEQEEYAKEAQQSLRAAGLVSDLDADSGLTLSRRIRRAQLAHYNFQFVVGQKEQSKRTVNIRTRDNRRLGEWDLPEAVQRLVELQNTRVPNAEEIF

hmtThrRS [2] = target: T2, hmtThrRS (Homo sapiens, UniProt Q9BW92, C185S/C409S/C603S); assay: tRNA aminoacylation and posttransfer editing, […]tRNA TLC, after preincubation; settings: covalent (S-nitrosation); 1 mM GSNO preincubation; C506 mutant (only Cys506 kept of the four sites)
T2 construct: gene TARS2; mature form Leu20-Phe718, 699 residues, pET28, Ni-NTA, E. coli BL21(DE3), no reducing agent, dimer
T2 sequence (Q9BW92 20-718 C185S/C409S/C603S): T1 sequence (Q9BW92 20-718) with C166S, C390S, C584S

hmtThrRS [3] = target: T3, hmtThrRS (Homo sapiens, UniProt Q9BW92, C185S/C409S/C506S); assay: as above; settings: covalent (S-nitrosation); 1 mM GSNO preincubation; C603 mutant (only Cys603 kept of the four sites)
T3 construct: gene TARS2; mature form Leu20-Phe718, 699 residues, pET28, Ni-NTA, E. coli BL21(DE3), no reducing agent, dimer
T3 sequence (Q9BW92 20-718 C185S/C409S/C506S): T1 sequence (Q9BW92 20-718) with C166S, C390S, C487S

hmtThrRS [4] = target: T4, hmtThrRS (Homo sapiens, UniProt Q9BW92, C409S/C506S/C603S); assay: as above; settings: covalent (S-nitrosation); 1 mM GSNO preincubation; C185 mutant (only Cys185 kept of the four sites)
T4 construct: gene TARS2; mature form Leu20-Phe718, 699 residues, pET28, Ni-NTA, E. coli BL21(DE3), no reducing agent, dimer
T4 sequence (Q9BW92 20-718 C409S/C506S/C603S): T1 sequence (Q9BW92 20-718) with C390S, C487S, C584S

hmtThrRS [5] = target: T5, hmtThrRS (Homo sapiens, UniProt Q9BW92, C185S/C506S/C603S); assay: as above; settings: covalent (S-nitrosation); 1 mM GSNO preincubation; C409 mutant (only Cys409 kept of the four sites)
T5 construct: gene TARS2; mature form Leu20-Phe718, 699 residues, pET28, Ni-NTA, E. coli BL21(DE3), no reducing agent, dimer
T5 sequence (Q9BW92 20-718 C185S/C506S/C603S): T1 sequence (Q9BW92 20-718) with C166S, C487S, C584S

hmtThrRS [6] = target: T1, hmtThrRS; assay: tRNA mischarging, […]tRNA TLC; settings: noncognate; 100 mM Ser, E. coli tRNA-Thr, 10 mM MgCl2, pH 7.5
hmtThrRS [7] = target: T1, hmtThrRS; assay: tRNA aminoacylation, […]tRNA TLC; ATP-PPi exchange; settings: 1 mM Thr, 10 uM E. coli tRNA-Thr, 10 mM MgCl2, pH 7.5
EcThrRS = target: T6, EcThrRS (Escherichia coli, UniProt P0A8M3); assay: tRNA aminoacylation, […]tRNA TLC; settings: 1 mM Thr, E. coli tRNA-Thr, 10 mM MgCl2, pH 7.5
T6 construct: gene thrS; purified enzyme, construct not described in main text
T6 sequence (P0A8M3 whole entry): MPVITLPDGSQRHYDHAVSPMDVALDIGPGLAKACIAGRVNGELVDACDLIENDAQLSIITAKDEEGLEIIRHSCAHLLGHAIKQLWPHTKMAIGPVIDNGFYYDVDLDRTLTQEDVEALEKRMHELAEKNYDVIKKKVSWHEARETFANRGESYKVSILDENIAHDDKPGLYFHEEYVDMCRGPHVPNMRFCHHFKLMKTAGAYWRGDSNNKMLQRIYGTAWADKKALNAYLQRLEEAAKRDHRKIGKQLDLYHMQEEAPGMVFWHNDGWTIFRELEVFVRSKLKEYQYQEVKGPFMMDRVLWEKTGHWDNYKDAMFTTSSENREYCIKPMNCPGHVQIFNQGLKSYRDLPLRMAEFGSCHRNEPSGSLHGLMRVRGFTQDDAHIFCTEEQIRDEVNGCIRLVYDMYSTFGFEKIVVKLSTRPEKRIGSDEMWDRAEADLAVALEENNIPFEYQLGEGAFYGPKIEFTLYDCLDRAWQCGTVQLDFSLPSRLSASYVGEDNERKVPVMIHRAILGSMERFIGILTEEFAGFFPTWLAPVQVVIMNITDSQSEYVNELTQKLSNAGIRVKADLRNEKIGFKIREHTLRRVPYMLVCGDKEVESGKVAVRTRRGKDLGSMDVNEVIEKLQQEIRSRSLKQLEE

N[C@@H](CCC(=O)N[C@@H](CSN=O)C(=O)NCC(=O)O)C(=O)O [GSNO, S-nitrosoglutathione]
tRNA aminoacylation and mischarging, [32P]tRNA TLC, after preincubation; IBP-MS (hmtThrRS [1]): The resulting inhibition of both the aminoacylation and mischarging activities of hmtThrRS was dose-dependent | tRNA aminoacylation and posttransfer editing, [32P]tRNA TLC, after preincubation (hmtThrRS [2]): Both activities for the four mutants were obviously inhibited after GSNO incubation | tRNA aminoacylation and posttransfer editing, [32P]tRNA TLC, after preincubation (hmtThrRS [3]): Both activities for the four mutants were obviously inhibited after GSNO incubation | tRNA aminoacylation and posttransfer editing, [32P]tRNA TLC, after preincubation (hmtThrRS [4]): Both activities for the four mutants were obviously inhibited after GSNO incubation | tRNA aminoacylation and posttransfer editing, [32P]tRNA TLC, after preincubation (hmtThrRS [5]): the inhibitory effect of GSNO on the C409 mutant was the most prominent

N[C@@H](CO)C(=O)O [Ser, L-Ser]
tRNA mischarging, [32P]tRNA TLC (hmtThrRS [6]): mischarging of tRNA^Thr with noncognate Ser was determined without or with H2O2 treatment

C[C@@H](O)[C@H](N)C(=O)O [Thr, L-Thr]
tRNA aminoacylation, [32P]tRNA TLC; ATP-PPi exchange (hmtThrRS [7]): The synthesis of Thr-tRNA^Thr was obviously not affected by H2O2 | tRNA aminoacylation, [32P]tRNA TLC (EcThrRS): aminoacylation activity of EcThrRS was assayed and compared

Source: article PMC7337905, “Nitrosative stress inhibits aminoacylation and editing activities of mitochondrial threonyl-tRNA synthetase by S-nitrosation” (Nucleic Acids Research, 2020)
